Measurements as given in paper PMC8306139, “A Novel Dialkylamino-Functionalized Chalcone, DML6, Inhibits Cervical Cancer Cell Proliferation, In Vitro, via Induction of Oxidative Stress, Intrinsic Apoptosis and Mitotic Catastrophe” (Molecules, 2021).

Experiments:
Assay type in all cases: cell-based
MDA-MB-231 = assay: MTT assay, MDA-MB-231; settings: Homo sapiens, MDA-MB-231, 72 h, read-out: IC50 ± SD Breast MDA-MB-231
Protocol: (§2) The concentration of the tested compounds that produced a 50% inhibition of cell growth (IC50) was determined.
(§3) A panel of cancer cell lines, including cervical (OV2008 and HeLa), breast (MDA-MB-231), lung (A549) and colon (LOVO), prostate (DU145), human embryonic kidney cells (HEK293), human colon fibroblast cells (CRL1459), and Chinese hamster ovary cells (CHO), were grown as adherent monolayers in flasks containing Dulbecco’s modified Eagle medium (DMEM), supplemented with 10% fetal bovine serum (FBS) and 1% penicillin and streptomycin, in a humidified incubator with 5% CO2 at 37 °C.
(§4) The cells were seeded evenly (180 μL/well) in 96-well plates, at a density of 3000–5000 cells/well and incubated with serial dilutions of the compounds ranging from 0.1 to 100 μM. The MTT dye (4 mg/ml) was added after 72 h of incubation and incubated with the cells for an additional 4 h at 37 °C, allowing the viable cells to biotransform the yellow-colored MTT into dark-blue formazan crystals. Following incubation, the medium was aspirated, and the formazan crystals were dissolved by adding 100 μL of DMSO to each well. Cytation™ 5 and Cytation™ 7 multi-mode detector (Bio Tek Instruments, Winooski, VT, USA) was used to determine the absorbance readings at a wavelength of 570 nm. The IC50 values were determined based on 3 separate experiments, with each experiment carried out in triplicate.

A549 = assay: MTT assay, A549; settings: Homo sapiens, A549, 72 h, read-out: IC50 ± SD Lung A549
Protocol: as §2, §3, §4

[1] = system: human colon fibroblast cells (CRL1459); assay: MTT assay, CRL1459; settings: 72 h
Protocol: as §2, §3
The cells were seeded evenly (180 μL/well) in 96-well plates, at a density of 3000–5000 cells/well and incubated with serial dilutions of the compounds ranging from 0.1 to 100 μM. […] Cytation™ 5 and Cytation™ 7 multi-mode detector (Bio Tek Instruments, Winooski, VT, USA) was used to determine the absorbance readings at a wavelength of 570 nm. The IC50 values were determined based on 3 separate experiments, with each experiment carried out in triplicate. The selectivity of the compounds was determined by comparing their IC50 values in cervical cancer compared to the normal epithelial cell lines, HEK293, CHO, and CRL1459.

OV2008 cells [2] = assay: IncuCyte live-cell morphology study (confluence); settings: 72 hours, vehicle ≈70%
Protocol: Real-time live cell analysis was performed as previously described. In order to determine the morphological changes induced by DML6, OV2008 cells were seeded at 4000 cells/well in a 96-well plate and incubated overnight at 37 °C, with 5% CO2 in an incubator. […] IncuCyte was then programmed to capture the images at different time points (0, 24, 48 and 72 h), using the integrated IncuCyte S3 software version 2020B (Essen BioScience, Ann Arbor, MI, USA).

OV2008 cells [3] = assay: Nuclear staining with Hoechst dye
Protocol: Nuclear fragmentation and chromatin condensation were detected using the Hoechst 33258 DNA dye as previously described. OV2008 cells were seeded at a density of 250,000 cells/mL in 6-well plates and incubated overnight at 37 °C. The next day, the cells were incubated with the vehicle (DMEM media with 10% FBS and 1% penicillin and streptomycin), 5 or 20 μM of DML6 and further incubated overnight at 37 °C. The cells were fixed and stained with the Hoechst 33258 DNA dye for at least 30 min. The stained nucleus fluorescence was detected using an EVOS digital microscope at wavelengths of 460–490 nm.

OV2008 cells [4] = assay: Apoptosis and mitochondrial membrane potential (MitoTracker Red / Alexa Fluor 488 annexin V); settings: 24 h; for percentage of apoptotic cells in quadrant II (Q2): vehicle 8.41%; for percentage of live cells in quadrant I (Q1): vehicle 90.86%
Protocol: MitoTracker® Red and Alexa Fluor 488 annexin V kits for flow cytometry (Molecular Probes Inc., Eugene, OR, USA) were used to determine the mitochondrial membrane potential and apoptosis, respectively, in OV2008 cells, as previously described. OV2008 cells were seeded in 6-well plates and incubated with the vehicle, 5 or 20 μM of DML6 for 24 h. The following day, the cells were trypsinized using 0.25% trypsin, 2.21 mM EDTA, 1×, counted and 4 μL of 10 μM MitoTracker® Red working solution was added to 1 mL of the harvested cells. The cells were incubated at 37 °C with 5% CO2 for 30 min. The cells were washed with ice-cold phosphate-buffered saline (PBS), followed by cell resuspension in 100 μL of the annexin binding buffer. The cell suspensions were then incubated with 5 μL of Alexa Fluor 488 annexin V for 15 min, followed by adding 400 μL of the annexin-binding buffer. Finally, flow cytometry was used to detect the fluorescence of stained cells at the following excitation/emission maximum: Alexa Fluor® 488 annexin V: 499/521 nm; MitoTracker® Red: 579/599 nm, using a flow cytometer BD FACSCanto™ (BD Biosciences, Becton-Dickinson, San Jose, CA, USA) and analyzed using FCS Express 7 plus De Novo software (Glendale, CA, USA).

Bcl-2 = assay: Western blot, Bcl-2; settings: OV2008, 20 μM, 24 h, vs vehicle
Protocol: (§1) The OV2008 cells were lysed to obtain total cellular protein fractions using Mammalian Protein Extraction Reagent (Catalog # 78501, M-PER™, Thermo Fisher Scientific, Waltham, MA, USA). The cells were seeded in […] at a density of 1 × 10^6 and incubated with 5 or 20 µM of DML6 or 1 µM of doxorubicin (Catalog # T1-2-, TargetMol, Boston, MA, USA) (a positive control) for 24 h. The following day, the cells were washed with ice-cold PBS, scraped using a cell scrapper and collected in Eppendorf tubes. The tubes were centrifuged at 1500 RPM at 4 °C for 5 min. The solution was discarded and replaced with 70 µL of the cell lysis buffer (M-PER reagent, 100 mM Sodium Orthovanadate (NaOV) at a final concentration of 2.5 mM) and a 100X protease inhibitor cocktail (Catalog # P8340, Sigma-Aldrich, St. Louis, MO, USA, final concentration of 1X, containing of aprotinin, bestatin, E-64, leupeptin and pepstatin). Thirty minutes later, the resulting solution was centrifuged at 10,000 RPM at 4 °C for 5 min and the supernatant was collected. The protein concentration of the cell extracts was determined using the bicinchoninic acid (BCA) (Catalog # 786-570, G-Biosciences, Saint Louis, MO, USA) quantification assay. […] Finally, the amount of protein in each blot was quantified using the Image J software (NIH, Bethesda, MD, USA). All data were calculated as a ratio to β-actin.

Bak = assay: Western blot, Bak; settings: OV2008, 5 and 20 μM, 24 h, vs vehicle
Protocol: as §1

caspase-3 = assay: Western blot, cleaved caspase-3; settings: OV2008, 5 or 20 µM, vs vehicle
Protocol: as §1

## CN(C)c1ccc(/C=C/C(=O)c2ccc(Cl)cc2Cl)cc1 [DML6, (E)-1-[2,4-dichlorophenyl]-3-(4-(dimethylamino)phenyl)prop-2-en-1-one]
MDA-MB-231
  IC50: 91.9 ± 11.5 µM
A549
  IC50: 84.9 ± 21.4 µM
[1]
  cytotoxicity in normal cells, CRL1459: did not produce significant cytotoxicity
OV2008 cells [2]; 5 µM
  confluence of OV2008: ≈ 40%
OV2008 cells [2]; 20 µM
  confluence of OV2008: ≈ 10%
OV2008 cells [3]; 5 μM, 24 h
  nuclear morphology: increased the number of cells with condensed, fragmented nuclei
OV2008 cells [3]; 20 µM
  nuclear morphology: decondensed, multiple micronuclei and some single, highly condensed nuclei
OV2008 cells [3]; 5 and 20 μM, vs vehicle
  percentage of apoptotic nuclei: significantly higher
OV2008 cells [4]; 5 µM
  percentage of apoptotic cells in quadrant II (Q2): 41.38%
  percentage of live cells in quadrant I (Q1): 53.39%
OV2008 cells [4]; 20 µM
  percentage of apoptotic cells in quadrant II (Q2): 73.67%
  percentage of live cells in quadrant I (Q1): 22.37%
Bcl-2
  levels of the anti-apoptotic protein Bcl-2: significantly decreased
Bak
  expression of the pro-apoptotic protein Bak: significantly increased the expression
caspase-3
  cleavage (activation) of caspase-3: significantly increased the cleavage
